According to US20140128472A1, “TREATMENT AND PREVENTION OF DISEASES RELATED TO OXIDATIVE STRESS” (UNIVERSITY OF PÉCS, priority 2011, published 2014):
Entries after “also recorded” stand apart in the source; their conditions may differ.

Columns and labels:
[1] = tested on: Akt (protein kinase B); assay: Insulin-induced phosphorylation of Akt in 3T3-L1 adipocytes (Western blot); type: cell-based, mouse
Protocol: (§1) Primary cultures of mouse embryo fibroblasts (3T3-L1) were purchased from ATCC (Manassas, US). Early passages of 3T3-L1 fibroblasts were cultured in Dulbecco's modified Eagle medium ((DMEM, Invitrogen, CAT number: 41966-029; Sigma Aldrich CAT number: D6046) supplemented with 10% Fetal Bovine Serum (Gibco, CAT number: 16170-078), 100 U/ml penicillin and 0.1 mg/ml streptomycin (Gibco, CAT number: 15070-063) and 398 nM p-, m-, or o-Tyr. DMEM contained 25 or 5 mM glucose (depending on the experiment), L-glutamine, and pyruvate. Cells were grown in a humidified incubator at 37° C. and 5% CO2. Differentiation medium consisted of DMEM supplemented with 10% Fetal Bovine Serum (FBS, Gibco, Csertex, Budapest, Hungary, CAT number: 10106-169) (FBS), to which a cocktail was added containing […] isobuthylmethylxanthine (Sigma Aldrich, CAT number: I 5879), 0.17 nM insulin (Sigma Aldrich, CAT number: I 9278) and 250 nM dexamethasone (Sigma Aldrich, CAT number: 861871). From Day 4 onward, cells were maintained in DMEM/10% FBS containing 1.5 pg/ml insulin with a media change every other day until experimental treatments were initiated. For all treatments, cells were incubated overnight in serum-deprived medium after 90% of the cell population reached the adipocyte phenotype.
Following the treatment cells were washed twice with Saline (4° C.) to remove any trace of the medium, then exposed to 80 μL lysis buffer/plate, containing 1.15% Triton X, 1M Trisbase, pH 7.4, 0.5 M EDTA, pH 8, 0.2 M EGTA, pH 7, 0.1 M dithiothreitol (DTT), 5 mg/ml phenylmethylsulfonyl fluoride (PMSF), 0.1 M Na3VO4, 5 mg/ml leupeptin, 5 mg/ml aprotinin, Phoshatase Inhibitor Coctail 1 and 2 (Sigma Aldrich, CAT number: P2850 and P5726). Adypocytes were scraped off mechanically and then frozen at −70° C.
The samples of EC lysates were sonicated (2 min) and centrifuged (10 min, 13,000 rpm, at 4° C.). Protein content of samples was determined by the Bradford method using bovine serum albumin as a standard Bio-Rad Benchmark Plus. Samples were solubilized in a buffer of 100 mM Tris-HCl (pH 6.8), 4.0% sodium dodecyl sulphate (SDS), 20% glycerol, 200 mM DTT, and 0.2% bromophenol blue. […]
Membranes were incubated overnight with the immunoglobulin G (IgG) monoclonal antibodies diluted to 1:1000 in TBS-T (0.1%), containing 5% bovine serum (BS). […] Blots were detected using enhanced chemiluminescence (ECL; Pierce Biotech, Bio-Rad, Budapest, Hungary). Computerized densitometry (integrated optical density) of the specific bands was analyzed with Scion Image for Windows Software. […]

[2] = tested on: 3T3-L1 adipocytes; assay: Erythropoietin-dependent uptake of deoxy-D-glucose into 3T3-L1 adipocytes; type: cell-based, mouse; conditions: 5 mM glucose; various concentrations of EPO
Protocol: as §1, with “From Day 4 onward, cells were maintained in DMEM/10% FBS containing 1.5 pg/ml insulin with a media change every other day until experimental treatments were initiated. For all treatments, cells were incubated overnight in serum-deprived medium after 90% of the cell population reached the adipocyte phenotype.” left out
[…] The sediment was dissolved in 70 μl of lysis-buffer and glucose uptake was assessed by scintillation counting measuring 30 μl of the sample with a Beckman LS 5000 TD counter in counts per minute (CPM) for five minutes each, using an average activity as the outcome. Samples were frozen overnight at −70° C. and protein concentration was measured using a Hitachi spectrophotometer. […]

[3] = tested on: Akt (PKB); assay: Erythropoietin-dependent phosphorylation of Akt (PKB) in 3T3-L1 adipocytes (Western blot); type: cell-based, mouse; conditions: 25 mM glucose; various concentrations of erythropoietin
[4] = Example p-Tyr treatment regimen in a patient (hsCRP, serum insulin, plasma glucose); type: in vivo, human
Protocol: As a further example, a patient attends medical control with a complaint of high blood pressure and increased stress at regular daily work in the last month. In this situation they relate an increased intake of coffein and sugar. Their high sensitivity C-reactive protein (hsCRP) level is measured as well as their serum insulin, and plasma glucose level.

[5] = tested on: thoracic and abdominal aorta, renal and femoral arteries; assay: Insulin-induced relaxation of isolated arterial segments after oral tyrosine isomer supplementation of rats; set-up: species or system Sprague-Dawley rats; conditions: proposed experiment: sustained in vivo supplementation with o-Tyr and p-Tyr together

SMILES	Insulin-induced Akt phosphorylation ([1]; cells grown on m-Tyr or o-Tyr, insulin 200 and 400 nmol/l)	EPO-induced glucose uptake compared to the para-Tyr control [2]	EPO-dependent Akt phosphorylation [3]	Insulin-induced Akt phosphorylation ([1]; cells grown on high glucose media with p-Tyr only)	Increase in Akt (protein kinase B) phosphorylation by insulin compared to controls ([1]; cells grown on p-Tyr and low glucose, increasing doses of insulin) [fold]	hsCRP, serum insulin and plasma glucose level ([4]; p-Tyr 3 g daily (three times 1 g), after a month)	hsCRP, serum insulin and plasma glucose level ([4]; p-Tyr therapy continued, after a further month)	Diminished response to insulin in isolated arterial segments [5]
N[C@@H](Cc1ccccc1O)C(=O)O [o-Tyr, Ortho-L-tyrosine]	inhibited the insulin-induced Akt-phosphorylation; also recorded: could not be significantly enhanced by insulin	inhibited	inhibited the normal increase in the Akt phosphorylation	–	–	–	–	–
N[C@@H](Cc1ccc(O)cc1)C(=O)O [p-Tyr, Para-L-tyrosine]	–	–	–	significantly lower Akt-phosphorylation	3	somewhat diminished	returned to the medium normal range	reversed
